Experimental data as given in patent publication US4578489A (priority 1982, dated 1986).
Like-named read-outs stand apart in the source and are kept apart here.

Key:
[1] = test system: Enterobacter aerogenes; assay: Minimum inhibitory concentration against bacteria, strain C; type: cell-based; conditions: 24 hours at 30° C.; tested at 100 and 300 mg/liter
Experimental: (§1) Overnight cultures, grown in Caso peptone bouillon (Merck) of the various strains of bacteria: (A) Proteus vulgaris, (B) Pseudomonas aeruginosa, (C) Enterobacter aerogenes, (D) Serratia marcencens, (E) Alcaligenes denitrificans and (F) Bacillus subtilis are each diluted in a ratio of 1/1000 in saline solution. Sufficient of the suspensions is put into Caso peptone bouillon to dilute the bacteria again in the ratio of 1/1000. Each of the compounds listed in Table 1 is then added in amounts of 100 and 300 mg/liter. After being incubated for 24 hours at 30° C. in a shaking waterbath, the turbidity of the samples is evaluated.

[2] = test system: Cladosporium cladosporioides; assay: Minimum inhibitory concentration against fungi, agar incorporation test, strain O; type: cell-based; conditions: malt extract/agar
Experimental: (§2) The invention is carried out using the known agar incorporation test in the following fungi:
(O) Cladosporium cladosporioides
(§3) in a malt extract/agar (Merck). Inhibition is effected by adding sufficient of each of the various compounds to give final concentrations in the agar of 2, 5, 10, 50 and 100 mg/liter. The concentrations (mg/liters) required to inhibit the growth of the fungi (starting from traces of fungi added dropwise) are illustrated in Table 3.

[3] = test system: mixed culture of bacteria; type: cell-based; set-up: key: +: growth, no destruction; (+): growth less than that of control (>10 colonies), slight destruction; (-): slight growth (1-10 colonies); -: no growth, destruction
[4] = test system: Aspergillus niger; assay: Minimum inhibitory concentration against fungi, agar incorporation test, strain K; type: cell-based; conditions: malt extract/agar
Experimental: as §2, §3

[5] = test system: Candida albicans; assay: Minimum inhibitory concentration against fungi, agar incorporation test, strain P; type: cell-based; conditions: malt extract/agar
Experimental: as §2, §3

[6] = test system: Pseudomonas aeruginosa; assay: Minimum inhibitory concentration against bacteria, strain B; type: cell-based; conditions: 24 hours at 30° C.; tested at 100 and 300 mg/liter
Experimental: as §1

[7] = test system: Alternaria alternata; assay: Minimum inhibitory concentration against fungi, agar incorporation test, strain N; type: cell-based; conditions: malt extract/agar
Experimental: as §2, §3

[8] = test system: Aspergillus phoenicis; assay: Minimum inhibitory concentration against fungi, agar incorporation test, strain L; type: cell-based; conditions: malt extract/agar
Experimental: as §2
(L) Aspergillus phoenicis
as §3

[9] = test system: Chaetomium globosum; assay: Minimum inhibitory concentration against fungi, agar incorporation test, strain S; type: cell-based; conditions: malt extract/agar
Experimental: as §2, §3

[10] = test system: Proteus vulgaris; assay: Minimum inhibitory concentration against bacteria, strain A; type: cell-based; conditions: 24 hours at 30° C.; tested at 100 and 300 mg/liter
Experimental: as §1

[11] = test system: Enteromorpha intestinalis; assay: Action against Enteromorpha intestinalis: destruction (minimum killing concentration); type: in vivo; conditions: 4 hours in seawater, then 6-8 weeks in fresh seawater
Experimental: (§4) The action against the green alga Enteromorpha, which is the most important in seawter fouling, is investigated in sterile-filtered seawater containing an Erd-Schreiber solution. This solution is composed of a nutrient extract, phosphate and nitrate. The incubation of Enteromorpha intestinalis is carried out in a light thermostat at 18° C. under an alternation of 14 hours of light and 10 hours of darkness.
The algae which have been cultured in this way are exposed to the products under investigation for a short time (4 hours) in seawater. The minimum killing concentration (MKC) is determined by taking the algae out of the seawater containing a specific quantity of algicide, after the treatment time in the latter, washing the algae and investigating growth or mortality after incubation in fresh seawater for a further period of 6-8 weeks.
The minimum killing concentration (MKC) indicates the amount of substance required to cause such damage to the algae within a specific time that they can no longer recover in fresh seawater and die out.

[12] = test system: Serratia marcencens; assay: Minimum inhibitory concentration against bacteria, strain D; type: cell-based; conditions: 24 hours at 30° C.; tested at 100 and 300 mg/liter
Experimental: as §1

[13] = test system: Artemia salina; assay: Action against Artemia salina nauplii; type: in vivo; set-up: key: 0: no change; 1: slight change; 1-2: animals are attacked; 2: animals are strongly attacked; 2-3: animals are nearly all dead; 3: animals are all dead
Experimental: The eggs, which are available commercially, are caused to hatch by vigorous aeration. When 2-3 days old, the nauplii are exposed to the products at various concentrations (concentrations tested: 2.5; 1; 0.5 and 0.25 mg/liter) in synthetic seawater, and are observed over a prolonged period of time.

[14] = test system: Chlorella vulgaris; assay: Action against algae: Chlorella vulgaris; type: cell-based; set-up: key: --: no growth on the agar, 3 ppm have destroyed the algae in 6 hours; conditions: 3 mg/liter; for Growth on the agar (algae-destroying action): 6 hours exposure, 14 days incubation; for Growth in the medium (growth inhibition): 14 days
Experimental: Cultures of Chlorella vulgaris which had been grown for 14 days in algae nutrient media are diluted in the ratio 1/200 in the algae nutrient medium. Each of the compounds listed in Table 1 is then added in such an amount as to give a final concentration of 3 mg/liter. After incubating for 6 hours, 10 μl of each culture are withdrawn and added dropwise to algae/agar in order to determine the destructive action. After the cultures have incubated for 14 days under illumination (14 hours of light and 10 hours of darkness, alternately), the growth in the algae medium (determination of growth inhibition) and on the algae/agar (determination of algae-destroying action) is assessed visually.

[15] = test system: Enteromorpha intestinalis; assay: Action against Enteromorpha intestinalis: inhibitory concentration (MIC); type: in vivo; conditions: seawater containing biocide for entire test; concentration tested 0.5 mg/liter
Experimental: as §4
For determining the inhibitory concentration (MIC), the algae are kept in seawater containing biocide for the entire duration of the test (concentration tested: 0.5 mg/liter).

[16] = test system: Bacillus subtilis; assay: Minimum inhibitory concentration against bacteria, strain F; type: cell-based; conditions: 24 hours at 30° C.; tested at 100 and 300 mg/liter
Experimental: as §1

[17] = test system: Aureobasidium pullulans; assay: Minimum inhibitory concentration against fungi, agar incorporation test, strain R; type: cell-based; conditions: malt extract/agar
Experimental: as §2
(R) Aureobasidium pullulans
as §3

[18] = test system: Endomyces geotrichum; assay: Minimum inhibitory concentration against fungi, agar incorporation test, strain Q; type: cell-based; conditions: malt extract/agar
Experimental: as §2, §3

[19] = test system: Alcaligenes denitrificans; assay: Minimum inhibitory concentration against bacteria, strain E; type: cell-based; conditions: 24 hours at 30° C.; tested at 100 and 300 mg/liter
Experimental: as §1

[20] = test system: Penicillium funiculosum; assay: Minimum inhibitory concentration against fungi, agar incorporation test, strain M; type: cell-based; conditions: malt extract/agar
Experimental: as §2
(M) Penicillium funiculosum
as §3

[21] = 5 mg/l, culture diluted 1/1000 in Tyrode
[22] = 5 mg/l, culture diluted 1/10000 in Tyrode
[23] = 10 mg/l, culture diluted 1/1000 in Tyrode
[24] = 10 mg/l, culture diluted 1/10000 in Tyrode
[25] = 30 mg/l, culture diluted 1/1000 in Tyrode
[26] = 30 mg/l, culture diluted 1/10000 in Tyrode
[27] = 60 mg/l, culture diluted 1/1000 in Tyrode
[28] = 60 mg/l, culture diluted 1/10000 in Tyrode
[29] = 100 mg/l, culture diluted 1/1000 in Tyrode
[30] = 100 mg/l, culture diluted 1/10000 in Tyrode

## CCCCCCCCCC[N+](C)(C)CCCCCCCCCC.CCC[CH2][Sn-]([Cl])([Cl])([CH2]CCC)[CH2]CCC [Example 4, dimethyl-didecylammonium tributyldichlorostannate-(IV)]
[1]
  MIC against bacteria, strain C: 100 µg/mL
[2]
  MIC against fungi, strain O: 5 µg/mL
[3]; [21]
  Growth (destruction of a mixed culture of bacteria): +
[3]; [22]
  Growth (destruction of a mixed culture of bacteria): +
[3]; [23]
  Growth (destruction of a mixed culture of bacteria): +
[3]; [24]
  Growth (destruction of a mixed culture of bacteria): (+) (growth less than that of control (>10 colonies), slight destruction)
[3]; [25]
  Growth (destruction of a mixed culture of bacteria): +
[3]; [26]
  Growth (destruction of a mixed culture of bacteria): -
[3]; [27]
  Growth (destruction of a mixed culture of bacteria): (+) (growth less than that of control (>10 colonies), slight destruction)
[3]; [28]
  Growth (destruction of a mixed culture of bacteria): -
[3]; [29]
  Growth (destruction of a mixed culture of bacteria): (+) (growth less than that of control (>10 colonies), slight destruction)
[3]; [30]
  Growth (destruction of a mixed culture of bacteria): -
[4]
  MIC against fungi, strain K: 2 µg/mL
[5]
  MIC against fungi, strain P: 5 µg/mL
[6]
  MIC against bacteria, strain B: 100 µg/mL
[7]
  MIC against fungi, strain N: 2 µg/mL
[8]
  MIC against fungi, strain L: 5 µg/mL
[9]
  MIC against fungi, strain S: 2 µg/mL
[10]
  MIC against bacteria, strain A: 100 µg/mL
[11]
  Destruction, 5 mg/liter: yes
[12]
  MIC against bacteria, strain D: 100 µg/mL
[13]; 0,5 mg/l, 6 hours
  Action against Artemia salina: 1-3
[13]; 0,5 mg/l, 24 hours
  Action against Artemia salina: 2-3
[13]; 0,5 mg/l, 48 hours
  Action against Artemia salina: 3
[13]; 0,25 mg/l, 6 hours
  Action against Artemia salina: 0-1
[13]; 0,25 mg/l, 24 hours
  Action against Artemia salina: 2
[13]; 0,25 mg/l, 48 hours
  Action against Artemia salina: 2
[13]; 1 mg/l, 6 hours
  Action against Artemia salina: 2-3
[13]; 1 mg/l, 24 hours
  Action against Artemia salina: 3
[13]; 1 mg/l, 48 hours
  Action against Artemia salina: 3
[13]; 2,5 mg/l, 6 hours
  Action against Artemia salina: 2-3
[13]; 2,5 mg/l, 24 hours
  Action against Artemia salina: 3
[13]; 2,5 mg/l, 48 hours
  Action against Artemia salina: 3
[14]
  Growth on the agar (algae-destroying action): --
  Growth in the medium (growth inhibition): --
[15]
  MIC: 0.5 µg/mL
[16]
  MIC against bacteria, strain F: 100 µg/mL
[17]
  MIC against fungi, strain R: 2 µg/mL
[18]
  MIC against fungi, strain Q: 5 µg/mL
[19]
  MIC against bacteria, strain E: 100 µg/mL
[20]
  MIC against fungi, strain M: 5 µg/mL

## CCCCCCCCCCCCCCCC[n+]1ccccc1.CCC[CH2][Sn-]([Cl])([Cl])([CH2]CCC)[CH2]CCC [Example 7, Pyridine-Nhexadecyl / Tributyldichloro]
[1]
  MIC against bacteria, strain C: 100 µg/mL
[2]
  MIC against fungi, strain O: 2 µg/mL
[3]; [21]
  Growth (destruction of a mixed culture of bacteria): +
[3]; [22]
  Growth (destruction of a mixed culture of bacteria): +
[3]; [23]
  Growth (destruction of a mixed culture of bacteria): +
[3]; [24]
  Growth (destruction of a mixed culture of bacteria): (+) (growth less than that of control (>10 colonies), slight destruction)
[3]; [25]
  Growth (destruction of a mixed culture of bacteria): (+) (growth less than that of control (>10 colonies), slight destruction)
[3]; [26]
  Growth (destruction of a mixed culture of bacteria): (-) (slight growth (1-10 colonies))
[3]; [27]
  Growth (destruction of a mixed culture of bacteria): -
[3]; [28]
  Growth (destruction of a mixed culture of bacteria): -
[3]; [29]
  Growth (destruction of a mixed culture of bacteria): -
[3]; [30]
  Growth (destruction of a mixed culture of bacteria): -
[4]
  MIC against fungi, strain K: 2 µg/mL
[5]
  MIC against fungi, strain P: 5 µg/mL
[6]
  MIC against bacteria, strain B: 100 µg/mL
[7]
  MIC against fungi, strain N: 5 µg/mL
[8]
  MIC against fungi, strain L: 10 µg/mL
[9]
  MIC against fungi, strain S: 2 µg/mL
[10]
  MIC against bacteria, strain A: 100 µg/mL
[11]
  Destruction, 5 mg/liter: yes
[12]
  MIC against bacteria, strain D: 100 µg/mL
[13]; 0,5 mg/l, 6 hours
  Action against Artemia salina: 1-2
[13]; 0,5 mg/l, 24 hours
  Action against Artemia salina: 2
[13]; 0,5 mg/l, 48 hours
  Action against Artemia salina: 3
[13]; 0,25 mg/l, 6 hours
  Action against Artemia salina: 0-1
[13]; 0,25 mg/l, 24 hours
  Action against Artemia salina: 2
[13]; 0,25 mg/l, 48 hours
  Action against Artemia salina: 2-3
[13]; 1 mg/l, 6 hours
  Action against Artemia salina: 2
[13]; 1 mg/l, 24 hours
  Action against Artemia salina: 3
[13]; 1 mg/l, 48 hours
  Action against Artemia salina: 3
[13]; 2,5 mg/l, 6 hours
  Action against Artemia salina: 2-3
[13]; 2,5 mg/l, 24 hours
  Action against Artemia salina: 3
[13]; 2,5 mg/l, 48 hours
  Action against Artemia salina: 3
[14]
  Growth on the agar (algae-destroying action): --
  Growth in the medium (growth inhibition): --
[15]
  MIC: 0.5 µg/mL
[16]
  MIC against bacteria, strain F: 100 µg/mL
[17]
  MIC against fungi, strain R: 2 µg/mL
[18]
  MIC against fungi, strain Q: 5 µg/mL
[19]
  MIC against bacteria, strain E: 100 µg/mL
[20]
  MIC against fungi, strain M: 10 µg/mL
